The experiment deals with T1, ΔF508-CFTR (Homo sapiens, UniProt P13569, DEL508-508).
T1 construct: expressed in transfected cells
As to the kind of experiment: Membrane potential optical (FRET/VIPR) assay, identification of potentiator compounds. Type of experiment: cell-based. As to conditions: Table 3, assay not given; for % Activity: relative efficacy. An outline of the steps:
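Double-addition potentiator screen: compound delivered in gluconate-substituted Cl^--free medium, membrane potential followed via CC2-DMPE/DiSBAC2(3) FRET on VIPR. Cells were ΔF508-CFTR-expressing NIH3T3 mouse fibroblasts, held 2 h at 37° C. then 24 h at 27° C. before assay.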

These results are taken from patent US8614327B2 (Vertex Pharmaceuticals Incorporated, priority 2004, dated 2013).

T1 sequence (P13569 with tags, fused parts or gaps DEL508-508): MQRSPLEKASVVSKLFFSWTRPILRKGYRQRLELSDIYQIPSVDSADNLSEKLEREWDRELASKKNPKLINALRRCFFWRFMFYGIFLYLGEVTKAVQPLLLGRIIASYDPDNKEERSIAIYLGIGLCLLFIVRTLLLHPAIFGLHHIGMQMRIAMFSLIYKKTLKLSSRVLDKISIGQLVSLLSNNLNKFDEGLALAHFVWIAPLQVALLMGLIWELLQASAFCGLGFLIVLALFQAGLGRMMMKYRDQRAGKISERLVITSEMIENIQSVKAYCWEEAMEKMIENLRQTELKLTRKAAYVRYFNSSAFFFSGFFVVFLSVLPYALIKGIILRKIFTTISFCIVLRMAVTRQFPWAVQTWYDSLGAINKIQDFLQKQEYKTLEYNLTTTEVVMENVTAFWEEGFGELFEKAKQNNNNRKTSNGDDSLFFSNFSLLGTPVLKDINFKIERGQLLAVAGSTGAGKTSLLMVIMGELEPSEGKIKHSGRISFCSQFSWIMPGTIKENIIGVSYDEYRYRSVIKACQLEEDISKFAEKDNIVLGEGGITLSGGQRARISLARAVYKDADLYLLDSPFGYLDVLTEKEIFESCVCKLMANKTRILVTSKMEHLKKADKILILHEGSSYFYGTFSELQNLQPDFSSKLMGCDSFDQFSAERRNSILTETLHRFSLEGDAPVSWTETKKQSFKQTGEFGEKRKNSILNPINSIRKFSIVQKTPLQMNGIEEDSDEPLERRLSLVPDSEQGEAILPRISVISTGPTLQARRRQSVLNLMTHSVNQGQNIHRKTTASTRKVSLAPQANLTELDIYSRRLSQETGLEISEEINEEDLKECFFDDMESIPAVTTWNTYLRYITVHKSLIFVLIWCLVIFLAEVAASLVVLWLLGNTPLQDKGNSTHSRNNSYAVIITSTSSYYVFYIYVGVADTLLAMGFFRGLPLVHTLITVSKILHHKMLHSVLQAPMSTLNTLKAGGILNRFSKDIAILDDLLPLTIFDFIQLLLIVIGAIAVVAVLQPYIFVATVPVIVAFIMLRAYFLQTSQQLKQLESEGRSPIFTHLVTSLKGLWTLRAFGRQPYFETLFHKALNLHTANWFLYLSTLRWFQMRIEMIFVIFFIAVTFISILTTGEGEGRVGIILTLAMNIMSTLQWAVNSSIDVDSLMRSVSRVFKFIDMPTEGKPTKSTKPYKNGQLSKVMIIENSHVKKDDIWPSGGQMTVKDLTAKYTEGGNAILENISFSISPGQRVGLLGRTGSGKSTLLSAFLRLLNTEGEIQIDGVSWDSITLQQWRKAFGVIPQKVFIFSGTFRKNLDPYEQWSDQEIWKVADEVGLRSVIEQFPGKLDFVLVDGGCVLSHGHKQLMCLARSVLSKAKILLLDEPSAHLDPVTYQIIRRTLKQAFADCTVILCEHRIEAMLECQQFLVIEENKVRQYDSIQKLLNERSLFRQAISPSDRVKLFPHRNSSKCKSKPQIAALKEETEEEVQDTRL

By EC50 is commonly meant the concentration that produces a half-maximal response. Take `COC(=O)[C@@H]1[C@H]2C[C@H]2CN1c1ccc(NC(=O)c2c[nH]c3ccccc3c2=O)c(C(F)(F)F)c1` [Compound 531, (1S,2S,5R)-methyl 3-(4-(4-oxo-1,4-dihydroquinoline-3-carboxamido)-3-(trifluoromethyl)phenyl)-3-azabicyclo[3.1.0]hexane-2-carboxylate]: the half-maximal effective concentration (EC50) was below 10 µM and the “% Activity” value is given as “++ (between 25% to 100%)”.

With `O=C(Nc1ccc(C(F)(F)F)cc1Cl)c1c[nH]c2ccccc2c1=O` [Compound 532, N-[2-chloro-4-(trifluoromethyl)phenyl]-4-oxo-1H-quinoline-3-carboxamide], the EC50 is below 10 µM and the “% Activity” value is given as “++ (between 25% to 100%)”.

For `COc1ccc2[nH]cc(C(=O)Nc3cc4[nH]ccc4cc3C(C)(C)C)c(=O)c2c1` [Compound 533, 6-methoxy-4-oxo-N-(5-tert-butyl-1H-indol-6-yl)-1H-quinoline-3-carboxamide], the EC50 is below 10 µM and the “% Activity” value is given as “+++ (>100%)”.

As to `CN(C)[C@@H]1CCN(c2ccc(NC(=O)c3c[nH]c4ccccc4c3=O)c(C(F)(F)F)c2)C1` [Compound 534, (R)-N-(4-(3-(dimethylamino)pyrrolidin-1-yl)-2-(trifluoromethyl)phenyl)-4-oxo-1,4-dihydroquinoline-3-carboxamide], the EC50 is below 10 µM and the “% Activity” value was “++ (between 25% to 100%)”.

With `CC(C)(C)c1c[nH]c2cc(NC(=O)c3c[nH]c4cccc(O)c4c3=O)ccc12` [Compound 535, 5-hydroxy-4-oxo-N-(3-tert-butyl-1H-indol-6-yl)-1H-quinoline-3-carboxamide], the EC50 was below 10 µM and the “% Activity” value is “++ (between 25% to 100%)”.

As for `CC1(C)CCN(c2ccc(NC(=O)c3c[nH]c4ccccc4c3=O)c(C(F)(F)F)c2)C1` [Compound 536, N-[4-(3,3-dimethylpyrrolidin-1-yl)-2-(trifluoromethyl)phenyl]-4-oxo-1H-quinoline-3-carboxamide], the concentration giving a half-maximal response (EC50) is below 10 µM and the “% Activity” value is recorded as “++ (between 25% to 100%)”.

With `O=C(Nc1ccc2cc(C(F)(F)F)[nH]c2c1)c1c[nH]c2ccccc2c1=O` [Compound 537, 4-oxo-N-[2-(trifluoromethyl)-1H-indol-6-yl]-1H-quinoline-3-carboxamide], the EC50 is below 10 µM and the “% Activity” value was “++ (between 25% to 100%)”.

`Cc1cc(OC(F)(F)F)ccc1NC(=O)c1c[nH]c2ccccc2c1=O` [Compound 538, N-[2-methyl-4-(trifluoromethoxy)phenyl]-4-oxo-1H-quinoline-3-carboxamide]: the EC50 was below 10 µM and the “% Activity” value was “++ (between 25% to 100%)”.

Consider `Cc1cccc2[nH]cc(C(=O)Nc3ccc(N4[C@H](C)CC[C@H]4C)cc3C(F)(F)F)c(=O)c12` [Compound 539, N-(4-((2R,5R)-2,5-dimethylpyrrolidin-1-yl)-2-(trifluoromethyl)phenyl)-5-methyl-4-oxo-1,4-dihydroquinoline-3-carboxamide], for which the EC50 was below 10 µM and the “% Activity” value was “++ (between 25% to 100%)”.

Take `CC(C)(C)OC(=O)[C@H]1CCCN1c1ccc(NC(=O)c2c[nH]c3ccccc3c2=O)c(C(F)(F)F)c1` [Compound 540, (R)-tert-butyl 1-(4-(4-oxo-1,4-dihydroquinoline-3-carboxamido)-3-(trifluoromethyl)phenyl)pyrrolidine-2-carboxylate]: the EC50 was below 10 µM and the “% Activity” value was “+++ (>100%)”.

Consider `Cc1cccc2[nH]cc(C(=O)Nc3ccc(N4CC[C@@H](F)C4)cc3C(F)(F)F)c(=O)c12` [Compound 541, (R)-N-(4-(3-fluoropyrrolidin-1-yl)-2-(trifluoromethyl)phenyl)-5-methyl-4-oxo-1,4-dihydroquinoline-3-carboxamide], for which the EC50 is below 10 µM and the “% Activity” value is given as “++ (between 25% to 100%)”.

In the case of `CNc1cccc2[nH]cc(C(=O)Nc3cc(O)c(C(C)(C)C)cc3C(C)(C)C)c(=O)c12` [Compound 542, N-(5-hydroxy-2,4-ditert-butyl-phenyl)-5-methylamino-4-oxo-1H-quinoline-3-carboxamide], the EC50 was below 10 µM and the “% Activity” value is given as “+++ (>100%)”.

As to `CN(C)c1ccc2[nH]cc(C(=O)Nc3cc(O)c(C(C)(C)C)cc3C(C)(C)C)c(=O)c2c1` [Compound 544, 6-dimethylamino-N-(5-hydroxy-2,4-ditert-butyl-phenyl)-4-oxo-1H-quinoline-3-carboxamide], the EC50 is below 10 µM and the “% Activity” value is “++ (between 25% to 100%)”.

In the case of `O=C(Nc1ccc2c(C(F)(F)F)c[nH]c2c1)c1c[nH]c2ccccc2c1=O` [Compound 545, 4-oxo-N-[3-(trifluoromethyl)-1H-indol-6-yl]-1H-quinoline-3-carboxamide], the concentration for a half-maximal effect (EC50) was below 10 µM and the “% Activity” value is “+++ (>100%)”.

As to `Cc1cccc2[nH]cc(C(=O)Nc3ccc(N4CCC(C)C4)cc3C(F)(F)F)c(=O)c12` (stereo not drawn) [Compound 546, 5-methyl-N-[4-(3-methylpyrrolidin-1-yl)-2-(trifluoromethyl)phenyl]-4-oxo-1H-quinoline-3-carboxamide], the EC50 was below 10 µM and the “% Activity” value is reported as “++ (between 25% to 100%)”.

As to `Cc1cccc2[nH]cc(C(=O)Nc3ccc(OC(C)C)cc3C(F)(F)F)c(=O)c12` [Compound 547, N-[4-isopropoxy-2-(trifluoromethyl)phenyl]-5-methyl-4-oxo-1H-quinoline-3-carboxamide], the EC50 was below 10 µM and the “% Activity” value was “+++ (>100%)”.

Consider `CC(C)(C)c1cc(C(C)(C)C)c(NC(=O)c2c[nH]c3cc(C#N)ccc3c2=O)cc1O` [Compound 548, 7-cyano-N-(5-hydroxy-2,4-ditert-butyl-phenyl)-4-oxo-1H-quinoline-3-carboxamide], for which the EC50 is below 10 µM and the “% Activity” value is recorded as “++ (between 25% to 100%)”.

As to `O=C(Nc1cccc(-c2cccs2)c1)c1c[nH]c2ccccc2c1=O` [Compound 549, 4-oxo-N-[3-(2-thienyl)phenyl]-1H-quinoline-3-carboxamide], the EC50 was below 10 µM and the “% Activity” value was “++ (between 25% to 100%)”.

With `COC(=O)[C@@H]1C[C@@H](OC(C)(C)C)CN1c1ccc(NC(=O)c2c[nH]c3ccccc3c2=O)c(C(F)(F)F)c1` [Compound 550, (2S,4R)-methyl 4-tert-butoxy-1-(4-(4-oxo-1,4-dihydroquinoline-3-carboxamido)-3-(trifluoromethyl)phenyl)pyrrolidine-2-carboxylate], the EC50 is below 10 µM and the “% Activity” value is “++ (between 25% to 100%)”.

On to `O=C(Nc1cc(O)c2ccccc2c1)c1c[nH]c2ccccc2c1=O` [Compound 551, N-(4-hydroxy-2-naphthyl)-4-oxo-1H-quinoline-3-carboxamide], for which the “% Activity” value is given as “++ (between 25% to 100%)”.

`CC(C)(C)c1cc(C(C)(C)C)c(NC(=O)c2c[nH]c3ccc(Br)cc3c2=O)cc1O` [Compound 553, 6-bromo-N-(5-hydroxy-2,4-ditert-butyl-phenyl)-4-oxo-1H-quinoline-3-carboxamide]: the EC50 was below 10 µM and the “% Activity” value is on record as “++ (between 25% to 100%)”.

Take `CC(C)(C)c1c[nH]c2cc(NC(=O)c3c[nH]c4ccc(F)cc4c3=O)ccc12` [Compound 554, 6-fluoro-4-oxo-N-(3-tert-butyl-1H-indol-6-yl)-1H-quinoline-3-carboxamide]: the EC50 was below 10 µM and the “% Activity” value is reported as “++ (between 25% to 100%)”.

For the compound `CC1CCN(c2ccc(NC(=O)c3c[nH]c4ccccc4c3=O)c(C(F)(F)F)c2)C1` (stereo not drawn) [Compound 555, N-[4-(3-methylpyrrolidin-1-yl)-2-(trifluoromethyl)phenyl]-4-oxo-1H-quinoline-3-carboxamide], the EC50 is below 10 µM and the “% Activity” value is given as “++ (between 25% to 100%)”.

With `CC(C)(C)C(=O)Nc1ccc(NC(=O)c2c[nH]c3ccccc3c2=O)c(C(F)(F)F)c1` [Compound 556, N-[4-(2,2-dimethylpropanoylamino)-2-(trifluoromethyl)phenyl]-4-oxo-1H-quinoline-3-carboxamide], the half-maximal effective concentration (EC50) was below 10 µM and the “% Activity” value is reported as “++ (between 25% to 100%)”.

Take `CC(C)c1ccc(NC(=O)c2c[nH]c3ccc(F)cc3c2=O)c(C(F)(F)F)c1` [Compound 557, 6-fluoro-N-[4-isopropyl-2-(trifluoromethyl)phenyl]-4-oxo-1H-quinoline-3-carboxamide]: the EC50 was below 10 µM and the “% Activity” value was “++ (between 25% to 100%)”.

Consider `CC(C)(C)c1cc2cc[nH]c2cc1NC(=O)c1c[nH]c2cc(C#N)ccc2c1=O` [Compound 558, 7-cyano-4-oxo-N-(5-tert-butyl-1H-indol-6-yl)-1H-quinoline-3-carboxamide], for which the EC50 was below 10 µM and the “% Activity” value is listed as “++ (between 25% to 100%)”.

As for `CC(C)(C)c1cc2cc[nH]c2cc1NC(=O)c1c[nH]c2c(C(F)(F)F)cccc2c1=O` [Compound 559, 4-oxo-N-(5-tert-butyl-1H-indol-6-yl)-8-(trifluoromethyl)-1H-quinoline-3-carboxamide], the EC50 fell in the range of 10 to 25 µM and the “% Activity” value is “+ (<25%)”.

Turning to `COc1cc(NC(=O)c2c[nH]c3ccccc3c2=O)ccc1-n1c(C)ccc1C` [Compound 560, N-[4-(2,5-dimethylpyrrol-1-yl)-3-methoxy-phenyl]-4-oxo-1H-quinoline-3-carboxamide], the EC50 was below 10 µM and the “% Activity” value was “++ (between 25% to 100%)”.

For `CC(C)(C)c1cc(F)c(NC(=O)c2c[nH]c3ccc(Cl)cc3c2=O)cc1O` [Compound 561, 6-chloro-N-(2-fluoro-5-hydroxy-4-tert-butyl-phenyl)-4-oxo-1H-quinoline-3-carboxamide], the EC50 is below 10 µM and the “% Activity” value was “++ (between 25% to 100%)”.
